Results as given in patent US7129218B2, “Use of rhamnolipids in wound healing, treatment and prevention of gum disease and periodontal regeneration” (Paradigm Biomedical, Inc., priority 1999, dated 2006).

Assays:
venous ulcer = assay: Open wound healing in a patient with incurable venous ulcer; assay type: in vivo, human; conditions: 1% BAC-3 ointment twice daily during 41 days
Method: The BAC-3 rhamnolipid was tested in the case of open wound healing, in a patient suffering around ten years from incurable venous ulcer. On the left leg, the patient had very thick layers of collagen with fibrotic lesions. […] Moreover, after treatment was finished, not only the collagen, but also the fibrotic lesions had disappeared as well. One year after the treatment, the treated skin lesions on the left leg appear normal, and all skin collagen and fibrotic layers had disappeared.

burn wounds [1] = assay: Burn wounds, 15% body surface, treatment started 50 days after burning (rats); assay type: in vivo, Sprague-Dawley rats; conditions: 15% burn, open wounds after 50 days placebo; 1% BAC-3 ointment, tapering schedule
Excerpt: The wound surface areas tested were of two different sizes. One size to 7% of the body surface, which enables one to compare the rate of wound healing with different percentage of BAC-3 and the other size to 15% of the body surface, which is a sufficient size so that healing could not occur by contraction alone. On the other hand, the total wound surface area should not cause major systematic problems. The latter can be concluded from undisturbed weight gain of the animals. The standard animal burn was performed by techniques and device described by Walker. The burning devices were prepared using a model device ordered from U.S. Army Surgical Research Unit, Experimental Surgery, Army Medical Center, Fort Sam Houston, Tex. 78234. The devices had apertures which enabled exposure of 7% and 15% of the total rat skin surface. The surface of the skin was measured for every animal using Mech's formula: A=kW^2/3; A=surface area in cm^2; W=body weight in grams; k=10.
Method of burning. Each animal was anesthetized with sodium pentobarbital administered i/p (5 mg/25 g). (Producer: Veterinary Laboratory Inc. Lenexa, Kans.). The hair over the dorsum was clipped with animal clippers. The animal was placed supine in the burning device and the extremities were tied; the malleable retractor was placed over the animal and secured snugly with plastic straps. […]

burn wounds [2] = assay: Burn wounds, 7% body surface, topical treatment (rats); assay type: in vivo, Sprague-Dawley rats; conditions: for mean value of collagen tissue: histopathology day 45; for mean value of collagen concentration relative to placebo group 1 D taken as 100%: day 45
Method: The wounding of animals was performed according to the Protocol for Animal Use and Care at the University of California-Davis (hereafter UC-Davis). The entire animal protocol required 70 Sprague-Dawley rats: 30 rats for incision wounds and 40 rats for burn wounds. Among them 36 rats were burned over 7% of their skin and 4 rats were burned over 15% of their skin. Incision wounds of whole skin and burn wounds were treated topically with 2 test doses of the pharmaceutical preparation of di-rhamnolipid BAC-3. […] D.E.A. Hamburg); 23.8 g Lanolinum (Producer I.O.I. Hamburg); 4.7 g Cholesterin (Producer: Solvay, Wiena, Austria); Water Number: 320); or b). 1%; 0.1% active rhamnolipid (BAC-3) with antiseptic (chlorhexidine hydrochloride-[…]). Eucerin with BAC-3 was administrated twice daily during healing. The same experiment had one control group without the treatment, and one control group which was treated with ointment+1% chlorhexidine hydrochloride. During the experiment, animal body weight and behavior was checked every third day, and photographs were taken periodically. Burn wounds. The consecutive burn wounds should ideally be identical in depth and extent. The standard method defines the size and location of the burn wound, the temperature gradient, duration of exposure and method of applying the burn. The wound surface areas tested were of two different sizes. One size to 7% of the body surface, which enables one to compare the rate of wound healing with different percentage of BAC-3 and the other size to 15% of the body surface, which is a sufficient size so that healing could not occur by contraction alone. On the other hand, the total wound surface area should not cause major systematic problems. The latter can be concluded from undisturbed weight gain of the animals. The standard animal burn was performed by techniques and device described by Walker. The burning devices were prepared using a model device ordered from U.S. Army Surgical Research Unit, Experimental Surgery, Army Medical Center, Fort Sam Houston, Tex. 78234. […] The surface of the skin was measured for every animal using Mech's formula: A=kW^2/3; A=surface area in cm^2; W=body weight in grams; k=10. Method of burning. Each animal was anesthetized with sodium pentobarbital administered i/p (5 mg/25 g). (Producer: Veterinary Laboratory Inc. Lenexa, Kans.). The hair over the dorsum was clipped with animal clippers. The animal was placed supine in the burning device and the extremities were tied; the malleable retractor was placed over the animal and secured snugly with plastic straps. The entire device was then picked up by the retractor ends with forceps and the exposed area was immersed in boiling water. Ten seconds of exposure was sufficient to produce a full-thickness burn. On removal from the water, the dorsum was quickly dried by rolling on a towel and the animal was released and individually caged. This procedure produced a uniform burn with sharp margins. On post burn days 7, 14 and 45, animals were sacrificed by overdose of sodium pentobarbital and skin specimens were taken for histopathology. Specimens included the wound bed as well as the healthy skin of the wound margins. The specimens were fixed, and two stainings were routinely performed: Hematoxylin-Eosin (H&E) for microscopic evaluation, Verhoeff's staining for a better visualization of the crust and the regenerating dermis, and the alpha smooth muscle acting to identify the myofibroblasts. Microscopic findings were interpreted by a veterinarian pathologist. During the microscopic and macroscopic observations, four wound healing parameters were evaluated: crust formation, re-epithelialization, formation of granulation tissue and inflammation. 36 rats were divided into 6 groups. Each group had six animals. After burning rats according to the above-described procedure, each rat was caged individually. […]

CCCCCCCC(CC(=O)O)OC(=O)CC(CCCCCCC)OC1OC(C)C(O)C(O)C1OC1OC(C)C(O)C(O)C1O [BAC-3, (α-L-rhamnopyranosyl-(1,2)-α-L-rhamnopyranosyl)-3-hyroxydecanoyl-3-hydroxydecanoic acid]
collagen and fibrotic lesions after treatment (venous ulcer; after treatment and one year later): disappeared
patient's condition (venous ulcer; one patient, venous ulcer, left leg): significantly improved
time to whole epithelization in all animals (burn wounds [1]): 30 days
body weights among the treatment groups (burn wounds [2]; 1% and 0.1% BAC-3 in eucerin vs vehicle, 45 days): no significant differences
rate of burn wound closure (decrease in wound size) vs vehicle alone (burn wounds [2]; 7% burn, 0.1% BAC-3 in eucerin twice daily, no chlorhexidine, FIG. 1): significantly faster
burn wound size (distance across wound edges) vs vehicle alone (burn wounds [2]; 7% burn, 0.1% BAC-3 in eucerin, days 14, 21 and 28, p<0.05 by ANOVA, FIG. 2): significantly smaller
crust formation, difference between groups (burn wounds [2]; 7% burn, BAC-3 1% or 0.1% ointment with or without chlorhexidine vs placebo, 45 days): no significant differences
granulation tissue (burn wounds [2]; 7% burn, group 1-A, 1% BAC-3 in ointment twice daily): prominently developed
re-epithelization in the middle part of the burn wounds (burn wounds [2]; 7% burn, group 1-B, 0.1% BAC-3 in ointment twice daily): faster
mean value of collagen tissue (burn wounds [2]; 7% burn, group 1 A, 1% BAC-3 ointment, no chlorhexidine): 8.48 mm^2
mean value of collagen tissue (burn wounds [2]; 7% burn, group 1 B, 0.1% BAC-3 ointment, no chlorhexidine): 5.15 mm^2
granulation tissue (burn wounds [2]; 7% burn, group 2-A, 1% BAC-3 in ointment plus 1% chlorhexidine hydrochloride twice daily): prominently developed
re-epithelization in the middle part of the burn wounds (burn wounds [2]; 7% burn, group 2-B, 0.1% BAC-3 in ointment plus 1% chlorhexidine hydrochloride twice daily): faster
hair growth during the healing period (burn wounds [2]; group 1-A, 1% BAC-3 in ointment, compared to the other groups): very prominent
mean value of collagen concentration relative to placebo group 1 D taken as 100% (burn wounds [2]; group 1 A, 1% BAC-3): 131.26%
mean value of collagen concentration relative to placebo group 1 D taken as 100% (burn wounds [2]; group 1 B, 0.1% BAC-3): 79.72%
